Experiments:
[1] = system: RAW264.7 cells; test: RANKL-mediated osteoclast differentiation in RAW264.7 cells (TRAP staining); assay type: cell-based, mouse
Procedure: RAW264.7 cells were plated in 12-well plates and stimulated with RANKL (30 ng/ml) for 4 days. Cells were stained for TRAP essentially as described below. Photographs were taken using a 10× objective lens.
RAW cells were plated as described in FIG. 2A and treated with RANKL in the presence of 1, 30, or 100 μM of peptides as indicated. On day 4 cells were stained and evaluated as in FIG. 2A.
RAW264.7 cells were plated in 48-well plates in triplicate and treated with RANKL in the presence of increasing amounts of the indicated peptides. After 4-5 days, the cells were stained for TRAP and the total numbers of osteoclasts were counted as described below.
Primary bone marrow monocytes (BM) or RAW264.7 cells were cultured in 48-well dishes at a density of 1×10^5 cells/well or 2×10^3 cells/well, and then treated with the indicated factors at the beginning of the culture and during a medium change on day 3. Osteoclast formation was assessed by counting the total number of multi-nucleated (>3 nuclei), TRAP-positive cells present per well between day 7 and 10 (BM) or on day 5 (RAW264.7) (30).
The mouse macrophage cell line RAW264.7 express the receptor activator of NF-κB on their cell surface and when stimulated with the receptor activator of NF-κB ligand differentiate into multi-nucleated, tartrate resistant acid phosphatase (TRAP) positive osteoclasts after 4-5 days (FIG. 2A). To determine whether L-T6DP-1 could inhibit RANKL-mediated osteoclast differentiation, RAW264.7 cells were co-cultured with increasing concentrations of either L-T6DP-1. or T6DP-1 and 30 ng/ml RANKL for 4 days.

[2] = target: T1, TRAF2 binding to the cytoplasmic domain of RANK (Homo sapiens, UniProt Q12933); test: Competitive GST-pull down assay, TRAF2 binding to RANK cytoplasmic domain; settings: 100 μM peptide, FLAG-TRAF2 293 cell extract (FIG. 4C)
T1 construct: expressed in transfected cells; host or cells: human 293 cells (TRAF lysate); The GST-RANK fusion was purified as previously described
T1 sequence (Q12933 1-501): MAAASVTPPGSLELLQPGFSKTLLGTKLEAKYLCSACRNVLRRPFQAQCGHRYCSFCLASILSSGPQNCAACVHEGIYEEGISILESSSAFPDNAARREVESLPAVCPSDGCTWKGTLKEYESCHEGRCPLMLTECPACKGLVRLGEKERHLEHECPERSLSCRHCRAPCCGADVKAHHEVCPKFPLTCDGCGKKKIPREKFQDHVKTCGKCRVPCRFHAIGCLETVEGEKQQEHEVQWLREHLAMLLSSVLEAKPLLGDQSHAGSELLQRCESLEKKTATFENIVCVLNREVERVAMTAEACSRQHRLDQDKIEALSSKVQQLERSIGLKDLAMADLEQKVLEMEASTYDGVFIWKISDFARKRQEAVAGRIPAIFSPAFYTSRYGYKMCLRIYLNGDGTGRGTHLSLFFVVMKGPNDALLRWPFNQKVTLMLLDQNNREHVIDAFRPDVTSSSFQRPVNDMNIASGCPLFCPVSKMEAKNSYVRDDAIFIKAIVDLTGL
Procedure: Cellular extracts from human 293 cells transfected with either FLAG-TRAF2, -TRAF5, or -TRAF6 were mixed with GST or GST-RANKed in the absence or presence of 100 μM of the indicated peptides. A GST-pull down assay was performed as described below. The bound TRAFs were visualized by immunoblotting with anti-FLAG antibodies.
Equivalent amounts of GST or GST-RANK cytoplasmic domain (GST-RANKed) fusion protein attached to 20 μl of glutathione agarose beads were mixed with lysates (50 μg) from 293 cells programmed to express the epitope-tagged TRAF protein and the indicated peptides in binding buffer (20 mM TRIS, pH 8, 150 mM NaCl, 1 mM DTT, 2 mM EDTA, and 0.1% NP-40) and allowed to rotate for 1 h at 4° C. The beads were collected by centrifugation, washed three times in binding buffer, and then washed once in low-salt buffer (20 mM TRIS, pH 8, 50 mM NaCl, and 1 mM DTT). Bound proteins were eluted with addition of SDS-sample buffer and boiled. The eluted proteins were subjected to 7.5% SDS-PAGE and western blot analysis was performed with anti-FLAG antibodies.
The cytoplasmic domain of RANK interacts with many TRAF molecules, including TRAF1, 2, 3, 5, and 6 (7-9, 11, 12). While TRAF1, 2, 3, and 5 interact with the c-terminal tail of receptor activator of NF-κB, TRAF6 interacts with a membrane proximal region of the cytoplasmic domain of the receptor activator of NF-κB. […]

[3] = system: ERK; test: RANKL-mediated ERK activation in RAW264.7 cells (phospho-specific immunoblot); assay type: cell-based, mouse; settings: peptide 6 h, RANKL 10 nM 15 min (FIG. 5B)
Procedure: (§1) FIG. 5B and FIG. 5C show inhibition of RANKL-mediated ERK and p38 activation by L-T6DP-1. Whole cell extracts (30 μg) from FIG. 5A were separated by 10% SDS-PAGE and electroblotted onto a nitrocellulose membrane. The membranes were first immunoblotted with the indicated phospho-specific antibody and then stripped and re-probed with the indicated antibodies as described below.
(§2) Stimulation of the receptor activator of NF-κB activates members of the MAPK family including JNK, ERK and p38 kinase. The ability of the TRAF6 binding peptides to inhibit the receptor activator of NF-κB ligand-induced JNK, ERK, and p38 kinase activation was examined in RAW264.7 cells. […] Similar to the results with JNK, only L-T6DP-1 was able to block ERK (FIG. 5B) and p38 kinase (FIG. 5C) activation induced by the receptor activator of NF-κB ligand in RAW264.7 cells.

[4] = system: p38 kinase; test: RANKL-mediated p38 kinase activation in RAW264.7 cells (phospho-specific immunoblot); assay type: cell-based, mouse; settings: peptide 6 h, RANKL 10 nM 15 min (FIG. 5C)
Procedure: as §1, §2

L-T6DP-1: Kaposi fibroblast growth factor signal sequence hydrophobic domain attached to murine RANK peptide containing the known TRAF6 binding domain (AAVALLPAVLLALLAPRKIPTEDEYTDRPSQPST; PEPTIDE Peptide L-T6Bp-1)
RANKL-mediated osteoclast differentiation ([1]; 30 ng/ml RANKL, 4 days, 1, 30 or 100 μM peptide (FIG. 2B)): dose-dependent inhibition | multi-nucleated osteoclasts ([1]; RANKL, 100 μM peptide, cells still TRAP positive (FIG. 2B)): multi-nucleated osteoclast were not observed | number of TRAP positive osteoclasts ([1]; RANKL, increasing amounts of peptide, 4-5 days (FIG. 2C)): dose-dependent decrease | TRAF2 binding to the cytoplasmic domain of RANK [2]: neither L-T6DP-1 nor L-T6DP-2 inhibited | RANKL-induced ERK activation [3]: able to block | RANKL-induced p38 kinase activation [4]: able to block

Reference: patent US6998383B2, “Inhibitors of receptor activator of NF-κB and uses thereof” (Research Development Corporation, priority 2001, dated 2006)
